Measurements as given in patent EP0326134A1, “4-Amino-2,3-disubstituted-6,7-dihydro-5H-1-pyridine derivatives, process for their preparation and medicaments containing them” (NAUCHNO-ISSLEDOVATELSKY INSTITUT TEKHNOLOGII I BEZOPASNOSTI …, priority 1988, dated 1989).
Like-named read-outs stand apart in the source and are kept apart here.

What was measured:
[1] = Acute toxicity, single intraperitoneal injection, probit analysis (LD50); format: in vivo, Mäusen; conditions: mice, i.p.
Source text: Ihre akute Toxizität wurde an Mäusen (einmalige intraperitoneale Injektion) nach der Methode der Probit-Analyse nach Zichtfield, Wilcoxon, t949 untersucht. In Tabelle 2 sind die Parameter der akuten Toxizität (LDso) angegeben, die eine mäßige Toxizität der erfindungsgemäßen Verbindungen belegen.

Zahl der Krämpfe = test: Writhing test (intraperitoneal acetic acid); format: in vivo, Mäusen; conditions: male mice
Source text: Die analgetische Wirkung der erfindungsgemäßen Verbindungen wurde an männlichen Mäusen anhand des "Krampf"-Tests (Writhing-Tests) unter intraperitonealer Injizierung von Essigsäure und des Hot-plate-Tests untersucht. Im ersten Falle wurde die analgetische Wirkung der Verbindungen anhand der prozentualen Verringerung der Zahl der Krämpfe ermittelt. Beim zweiten Test wurde die Schwelle der Schmerzempfindlichkeit (Ablecken der Pfoten) bestimmt. Die stärkste analgetische Wirkung der erfindungsgemäßen Verbindungen zeigte sich beim "Krampf"-Test. Dabei übertrafen die Salze der bicyclischen Basen Amyridin, aber nicht alle erfindungsgemäßen Verbindungen waren schwächer als Morphin (s. Tabelle 4).

Orientierungsaktivität = test: Influence on orientation activity; format: in vivo, Mäusen; conditions: mice
Source text: Von Interesse ist der Einfluß der erfindungsgemäßen Verbindungen auf das ZNS und das Verhalten der Tiere. Alle Verbindungen zeigen eine Kombination von stimulierenden und sedativen Eigenschaften und bei höheren Dosen auch eine m-cholinomimetische Wirkung, wobei Tremor, Speichelfluß und Diarrhoe ausgelöst werden.

[2] = tested on: isolierten Präparaten des rechten Vorhofs von Kaninchen; test: Antiarrhythmic effect on isolated right atrium preparations (microelectrodes: AP duration, refractory period R, e/R); conditions: isolated right atrium of rabbit; for Antiarrhythmische Wirkung: Verlängerung d. Refraktärzeit (R), in %: microelectrodes
Source text: (§1) Die antiarrhythmische Wirkung der erfindungsgemäßen Verbindungen wurde in zwei Versuchsserien untersucht, und zwar an isolierten Präparaten des rechten Vorhofs von Kaninchen und mit Hilfe des Calciumchlorid-Arrhythmie-Modells an Ratten. In den Versuchen an den isolierten Präparaten des rechten Vorhofs wurden mit Hilfe von Mikroelektroden die Dauer des AP sowie der Refraktärzeit (R) und die maximale Hemmung (e) und der Parameter (e/R) untersucht, durch den die Anfälligkeit des Myokards gegenüber der Entstehung von Arrhythmien gekennzeichnet wird. In den Versuchen an Ratten wurden diesen Calciumchlorid in einer Dosierung von 250 mg/kg injiziert. Registriert wurden das Vorliegen von Kammerflimmern und die Lebensdauer der Tiere. Sämtliche erfindungsgemäßen Verbindungen üben eine mäßige antiarrhythmische Wirkung aus. Sie steigern die Refraktärzeit des Muskels und des AP um 35 bis 145 % und verringern gleichzeitig die Anfälligkeit des Myokards, ausgedrückt durch den Parameter e/R um 10 bis 80 % (s. Tabelle 4). In bezug auf diese Wirkung waren die Salze der bicyclischen Basen wirksamer als Amyridin. Bezüglich des Vermögens, die Tiere vor Kammerflimmern und vor dem Tod nach Verabreichung von 250 mg/kg Calciumchlorid zu schützen, waren diese Verbindungen ebenfalls am stärksten wirksam. Bei Verwendung des Calciumchlorid-Arrhythmie-Modells waren viele erfindungsgemäßen Verbindungen stärker wirksam als das klassische Antiarrhythmikum Chinidin (s. M.D. Ma s kovskij, Lekarstvennye sredstva, Bd. 1, S. 401, Moskau, Medicina, 1984).

[3] = tested on: Calciumchlorid-Arrhythmie-Modells; test: Calcium chloride arrhythmia model (250 mg/kg): ventricular fibrillation, survival; format: in vivo, Ratten; conditions: rats, calcium chloride 250 mg/kg
Source text: as §1

Wirkung von Hexenal = test: Influence on the effect of Hexenal; format: in vivo, Mäusen; conditions: mice
[4] = Side effects and CNS/behaviour: tremor (TD50), sedative and m-cholinomimetic effects; format: in vivo; conditions: for TD50 (Tremor) / TD50: toxic dose causing tremor in 50 % of the animals
Source text: Von Interesse ist der Einfluß der erfindungsgemäßen Verbindungen auf das ZNS und das Verhalten der Tiere.

[5] = tested on: durch Skopolamin hervorgerufene Amnesie; test: Dark avoidance assay (passive avoidance), scopolamine-induced amnesia; format: in vivo, Mäusen; conditions: for Einfluß auf das Gedächtnis: Zahl der Tiere in %, bei denen die Skopolaminwirkung aufgehoben wurde: mice, compound s.c. 5 min before learning, Skopolamin i.p. 30 min before
Method: Die Mäuse wurden dabei in den hellen Abschnitt der Kammer gegeben, wonach die Latenzzeit für den Übertritt in die dunkle Kammer, in der die Tiere einem Stromschlag von 0,5 mA ausgesetzt waren, registriert wurde. Danach erhöhte sich die Latenzzeit für den Übertritt in den dunklen Abschnitt und verringerte sich die Aufenthaltsdauer. 30 Minuten vor dem Versuch wurden den Mäusen i.p. […] Gedächtnisstörungen hervorrufendes Skopolamin als Cholinblocker injiziert. Die erfindungsgemäßen Verbindungen wurden s.c. 5 Minuten vor dem Lernvorgang injiziert. Das Skopolamin verkürzt die Latenzzeit für den Übertritt in die dunkle Kammer, die erfindungsgemäßen Verbindungen stellen jedoch die Latenzzeitwerte wie bei der Kontrollgruppe wieder her oder bedingen ein geringfügiges Überschreiten dieser Werte (siehe Tabelle 2). Gleichzeitig wird die Aufenthaltsdauer der Tiere im dunklen Abschnitt der Kammer auf 36 bis 45 Hundertstel des Ausgangswerts verringert.

[6] = tested on: Nerven-Muskel-Präparat von Mäusen (n.peroneus-m.extensor digitorum longus); test: Neuromuscular transmission in isolated nerve-muscle preparation (EPP, minEPP); conditions: for Stimulierung der Nerven-Muskelübertragung, in % der Amplitude: EPP: EPP = Endplattenpotential
Source text: Der Einfluß der Stoffe auf die Nerven-Muskei-Übertragung wurde am isolierten Nerven-Muskel-Präparat von Mäusen (n.peroneus-m.extensor digitorum longus) (s. Bhattacharyya B. et al. "Neuromuscular blocking action of two hemicholinium-3 analogs" Europ. J. Pharmac. 146, 155-165 /1988/) untersucht, das von Lilly-Lösung perfundiert wurde, durch die man ein Gemisch von 02 und C02 leitete. […] Das Endplattenpotential (EPP) und das Endplattenminiaturpotential (minEPP) wurden mit Hilfe eines Magnetografen aufgezeichnet und danach mit dem Computer ausgewertet. Ermittelt wurden die Frequenz (f), die Amplitude (A) und die Dauer (t) der minEPP und der EPP (s. Tabelle 2).

[7] = biological target: T1, Acetylcholinesterase menschlicher Erythrozyten (Homo sapiens, UniProt P22303); test: Acetylcholinesterase inhibition, spectrophotometric; format: biochemical
T1 construct: Acetylcholin-esteraseinhi-bierung bei menschlichen Erythrozyten; from tissue; host or cells: human erythrocytes
Source text: Untersucht wurden die Wirkmechanismen der erfindungsgemäßen Verbindungen: • 1. Die Wirkung auf Acetylcholinesterase menschlicher Erythrozyten auf spektrofotometrischem Wege. • 2.

[8] = ED50 = dose blocking the effect of Skopolamin in 50 % of the animals (passive avoidance, mice)
[9] = Acetylcholinesteraseinhibierung bei menschlichen Erythrozyten IK, (Mol), human erythrocyte enzyme

T1 sequence (P22303 other isoform, or with tags, fused parts or gaps): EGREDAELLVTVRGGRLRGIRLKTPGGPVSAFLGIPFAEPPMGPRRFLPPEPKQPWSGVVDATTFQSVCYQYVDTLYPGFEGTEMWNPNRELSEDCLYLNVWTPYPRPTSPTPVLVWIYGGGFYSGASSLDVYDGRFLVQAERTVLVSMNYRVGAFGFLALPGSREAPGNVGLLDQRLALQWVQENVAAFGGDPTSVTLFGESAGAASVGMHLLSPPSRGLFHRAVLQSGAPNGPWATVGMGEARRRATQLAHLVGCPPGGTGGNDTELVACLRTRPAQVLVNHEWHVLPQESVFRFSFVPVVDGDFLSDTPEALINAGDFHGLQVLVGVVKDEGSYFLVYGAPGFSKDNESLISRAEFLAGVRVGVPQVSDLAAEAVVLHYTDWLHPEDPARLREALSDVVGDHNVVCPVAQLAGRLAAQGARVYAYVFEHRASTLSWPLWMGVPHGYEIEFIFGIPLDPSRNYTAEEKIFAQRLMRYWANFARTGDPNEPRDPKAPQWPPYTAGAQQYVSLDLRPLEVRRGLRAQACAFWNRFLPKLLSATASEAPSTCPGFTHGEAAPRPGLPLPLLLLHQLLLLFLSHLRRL

Compound | LD50 [1] | Analgetische Wirkung: Abnahme d. Zahl der "Krämpfe" bei Mäusen, in % (Zahl der Krämpfe) | Änderung der Orientierungsaktivität, in % (Orientierungsaktivität) | Antiarrhythmische Wirkung: Verlängerung d. Refraktärzeit (R), in % [2] | Antiarrhythmische Wirkung: Abnahme d. Parameters θ/R, in % ([2]; parameter marks susceptibility of the myocardium to arrhythmia) | Antiarrhythmische Wirkung: Verlängerung d. Lebensdauer von Ratten an Hand des CaCl2-Arrhythmie-Modells, in % [3] | Änderung der Dauer der Seitenlage, in %: Hexenal 60 mg/kg (Wirkung von Hexenal) | Verhältnis TD50 zu ED50 [4, 8] | TD50 (Tremor) [4] | Einfluß auf das Gedächtnis: Zahl der Tiere in %, bei denen die Skopolaminwirkung aufgehoben wurde [5] | Stimulierung der Nerven-Muskelübertragung, in % der Amplitude: EPP [6] | Stimulierung der Nerven-Muskelübertragung, in % der Amplitude: minEPP [6] | Ki [7, 9] | TD50 ([4]; in vivo) | LD50 ([1]; mouse, in vivo, ip, read-out: LD50) | selectivity ratio ([4]; in vivo, ED50 = dose blocking the effect of Skopolamin in 50 % of the animals (passive avoidance, mice), read-out: Verhältnis TD50 zu ED50) | antiamnestische Wirkung ([5]; in words, compared with Amyridin) | Ki ([7]; read-out: Acetylcholinesteraseinhibierung bei menschlichen Erythrozyten IK, (Mol), human erythrocyte enzyme)
4-Amino-2,3-dimethyl-6,7-dihydro-5H-1-pyrindinsalicylat [Verbindung 8] | 17 mg/kg | 70% | 0% | 100% | 58% | 190% | 0% | 6 | 8 mg/kg | 70% | 40% | 75% |  |  |  |  |  | 
Cc1nc2c(c(N)c1C)CCC2 [Verbindung 2] | 15 mg/kg | 70% | -15% | 130% |  | 160% | +35% | 12,5 | 5 mg/kg | 75% | 45% | 85% | 48 nM |  |  |  |  | 
Cc1nc2c(c(N)c1C)CCC2 [Verbindung 3] | 17 mg/kg | 90% | -8% | 115% |  | 190% | 0% | 20 | 7 mg/kg | 80% | 55% | 110% | 180 nM |  |  |  |  | 
Cc1nc2c(c(N)c1C)CCC2 [Verbindung 4] | 15 mg/kg | 80% | 0% | 90% |  | 180% | 0% | 11 | 5,5 mg/kg | 70% | 40% | 85% | 240 nM |  |  |  |  | 
Cc1nc2c(c(N)c1C)CCC2 [Verbindung 5] | 25 mg/kg | 90% | -10% | 110% |  | 130% | 0% | 13 | 9 mg/kg | 60% | 40% | 90% | 660 nM |  |  |  |  | 
Cc1nc2c(c(N)c1C)CCC2 [Verbindung 6] | 35 mg/kg | 70% | -20% | 100% |  | 130% | +20% | 10 |  | 60% | 35% | 80% | 400 nM | 10 mg/kg |  |  |  | 
Cc1nc2c(c(N)c1C)CCC2 [Verbindung 7] | 20 mg/kg | 60% | -25% | 110% |  | 150% | +32% | 9 | 9 mg/kg | 80% | 52% | 95% | 366 nM |  |  |  |  | 
Cc1nc2c(c(N)c1C)CCC2 [Verbindung 17] | 24 mg/kg |  |  |  |  |  |  | 7,1 | 10 mg/kg | 72% | 43% | 75% | 390 nM |  |  |  |  | 
Cc1nc2c(c(N)c1C)CCC2 [Verbindung 18] | 16 mg/kg |  |  |  |  |  |  | 6 | 9 mg/kg | 70% | 45% | 80% | 145 nM |  |  |  |  | 
CCc1c(C)nc2c(c1N)CCC2 [Verbindung 22] | 32 mg/kg |  |  |  |  |  |  | 4 | 12 mg/kg | 70% | 25% | 60% |  |  |  |  |  | 
Cc1nc2c(c(N)c1-c1ccccc1)CCC2 [Verbindung 32] |  |  |  |  |  |  |  |  |  | 50% | 20% | 45% |  | 10 mg/kg | 18 mg/kg | 2.6 | ausgenommen | 50000 nM
